Assays:
Experiment in all cases: relative viability (nuclei count vs DMSO), 5 days (fraction); higher = more cells survive
HCC-15 = tested on: HCC-15
In short: (§1)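 Relative viability is defined as nuclei in treated wells over nuclei in vehicle wells. Duplicate plates were run and medians reported. Lung cancer cell lines in 1536-well plates were dosed by pin tool one day after seeding, with one drug or with a fixed anchor-drug dose plus five library-drug doses (not always all listed) in √10 steps, and nuclei were counted after 5 days.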

BEN = tested on: BEN
In short: as §1

NCI-H1915 = tested on: NCI-H1915
In short: as §1

NCI-H441 = tested on: NCI-H441
In short: as §1

LC-2-ad = tested on: LC-2-ad
In short: as §1

NCI-H647 = tested on: NCI-H647
In short: as §1

NCI-H838 = tested on: NCI-H838
In short: as §1

LXF-289 = tested on: LXF-289
In short: as §1

NCI-H1793 = tested on: NCI-H1793
In short: as §1

UMC-11 = tested on: UMC-11
In short: as §1

CAL-12T = tested on: CAL-12T
In short: as §1

HCC-366 = tested on: HCC-366
In short: as §1

HARA = tested on: HARA
In short: as §1

NCI-H661 = tested on: NCI-H661
In short: as §1

NCI-H1395 = tested on: NCI-H1395
In short: as §1

LOU-NH91 = tested on: LOU-NH91
In short: as §1

NCI-H322M = tested on: NCI-H322M
In short: as §1

NCI-H650 = tested on: NCI-H650
In short: as §1

SK-MES-1 = tested on: SK-MES-1
In short: as §1

NCI-H1651 = tested on: NCI-H1651
In short: as §1

NCI-H2085 = tested on: NCI-H2085
In short: as §1

NCI-H2347 = tested on: NCI-H2347
In short: as §1

H3255 = tested on: H3255
In short: as §1

Question: With `Nc1cccc2c1CN(C1CCC(=O)NC1=O)C2=O` (centres undefined) [Lenalidomide] + C[C@]1(O)C[C@@H](c2nc(-c3ccc4ccc(-c5ccccc5)nc4c3)c3c(N)nccn32)C1 [Linsitinib] (partner 1 µM) as the compound, how does the relative viability (HCC-15; first compound 0.253 µM) read?
Answer: 0.91

Question: What about the relative viability (HCC-15; first compound 2.53 µM) of the same compound?
Answer: 0.975

Question: And the relative viability (HCC-15; first compound 8 µM)?
Answer: 0.895

Question: What about the relative viability (BEN; first compound 0.253 µM) of the same compound?
Answer: 1.03

Question: And the relative viability (BEN; first compound 0.8 µM)?
Answer: 0.861

Question: And the relative viability (BEN; first compound 2.53 µM)?
Answer: 1.09

Question: What about the relative viability (BEN; first compound 8 µM) of the same compound?
Answer: 0.781

Question: And the relative viability (NCI-H1915; first compound 0.253 µM)?
Answer: 1.08

Question: What about the relative viability (NCI-H1915; first compound 0.8 µM) of the same compound?
Answer: 1.12

Question: And the relative viability (NCI-H1915; first compound 2.53 µM)?
Answer: 1.06

Question: What about the relative viability (NCI-H1915; first compound 8 µM) of the same compound?
Answer: 1.11

Question: What about the relative viability (NCI-H441; first compound 0.253 µM) of the same compound?
Answer: 0.547

Question: And the relative viability (NCI-H441; first compound 0.8 µM)?
Answer: 0.345

Question: What about the relative viability (NCI-H441; first compound 2.53 µM) of the same compound?
Answer: 0.692

Question: And the relative viability (NCI-H441; first compound 8 µM)?
Answer: 0.555

Question: What about the relative viability (LC-2-ad; first compound 0.253 µM) of the same compound?
Answer: 0.837

Question: What about the relative viability (LC-2-ad; first compound 0.8 µM) of the same compound?
Answer: 0.926

Question: And the relative viability (LC-2-ad; first compound 2.53 µM)?
Answer: 0.862

Question: What about the relative viability (LC-2-ad; first compound 8 µM) of the same compound?
Answer: 0.833

Question: And the relative viability (NCI-H647; first compound 0.253 µM)?
Answer: 1.16

Question: What about the relative viability (NCI-H647; first compound 0.8 µM) of the same compound?
Answer: 1.14

Question: And the relative viability (NCI-H647; first compound 2.53 µM)?
Answer: 1.32

Question: What about the relative viability (NCI-H647; first compound 8 µM) of the same compound?
Answer: 0.932

Question: What about the relative viability (NCI-H838; first compound 0.253 µM) of the same compound?
Answer: 1.02

Question: What about the relative viability (NCI-H838; first compound 0.8 µM) of the same compound?
Answer: 0.98

Question: And the relative viability (NCI-H838; first compound 2.53 µM)?
Answer: 1.13

Question: What about the relative viability (NCI-H838; first compound 8 µM) of the same compound?
Answer: 0.968

Question: And the relative viability (LXF-289; first compound 0.253 µM)?
Answer: 0.961

Question: And the relative viability (LXF-289; first compound 0.8 µM)?
Answer: 0.994

Question: And the relative viability (LXF-289; first compound 2.53 µM)?
Answer: 1.01

Question: And the relative viability (LXF-289; first compound 8 µM)?
Answer: 1.03

Question: What about the relative viability (NCI-H1793; first compound 0.253 µM) of the same compound?
Answer: 1.02

Question: What about the relative viability (NCI-H1793; first compound 0.8 µM) of the same compound?
Answer: 0.728

Question: And the relative viability (NCI-H1793; first compound 2.53 µM)?
Answer: 1.13

Question: And the relative viability (NCI-H1793; first compound 8 µM)?
Answer: 0.512

Question: And the relative viability (UMC-11; first compound 0.253 µM)?
Answer: 1.03

Question: And the relative viability (UMC-11; first compound 0.8 µM)?
Answer: 0.927

Question: And the relative viability (UMC-11; first compound 2.53 µM)?
Answer: 1.08

Question: And the relative viability (UMC-11; first compound 8 µM)?
Answer: 1.04

Question: And the relative viability (CAL-12T; first compound 0.253 µM)?
Answer: 0.821

Question: What about the relative viability (CAL-12T; first compound 0.8 µM) of the same compound?
Answer: 0.83

Question: And the relative viability (CAL-12T; first compound 2.53 µM)?
Answer: 1.15

Question: What about the relative viability (CAL-12T; first compound 8 µM) of the same compound?
Answer: 0.787

Question: What about the relative viability (HCC-366; first compound 0.253 µM) of the same compound?
Answer: 0.689

Question: And the relative viability (HCC-366; first compound 0.8 µM)?
Answer: 0.548

Question: And the relative viability (HCC-366; first compound 2.53 µM)?
Answer: 0.601

Question: What about the relative viability (HCC-366; first compound 8 µM) of the same compound?
Answer: 0.424

Question: And the relative viability (HARA; first compound 0.253 µM)?
Answer: 0.992

Question: What about the relative viability (HARA; first compound 0.8 µM) of the same compound?
Answer: 0.91

Question: And the relative viability (HARA; first compound 2.53 µM)?
Answer: 1.18

Question: And the relative viability (HARA; first compound 8 µM)?
Answer: 0.906

Question: And the relative viability (NCI-H661; first compound 0.253 µM)?
Answer: 0.451

Question: What about the relative viability (NCI-H661; first compound 0.8 µM) of the same compound?
Answer: 0.526

Question: And the relative viability (NCI-H661; first compound 2.53 µM)?
Answer: 0.59

Question: And the relative viability (NCI-H661; first compound 8 µM)?
Answer: 0.539

Question: What about the relative viability (NCI-H1395; first compound 0.253 µM) of the same compound?
Answer: 0.968

Question: And the relative viability (NCI-H1395; first compound 2.53 µM)?
Answer: 1.23

Question: And the relative viability (NCI-H1395; first compound 8 µM)?
Answer: 1.03

Question: What about the relative viability (LOU-NH91; first compound 0.253 µM) of the same compound?
Answer: 0.912

Question: What about the relative viability (LOU-NH91; first compound 0.8 µM) of the same compound?
Answer: 0.977

Question: And the relative viability (LOU-NH91; first compound 2.53 µM)?
Answer: 0.922

Question: And the relative viability (LOU-NH91; first compound 8 µM)?
Answer: 0.847

Question: What about the relative viability (NCI-H322M; first compound 0.253 µM) of the same compound?
Answer: 0.912

Question: What about the relative viability (NCI-H322M; first compound 0.8 µM) of the same compound?
Answer: 1.06

Question: And the relative viability (NCI-H322M; first compound 2.53 µM)?
Answer: 0.856

Question: And the relative viability (NCI-H322M; first compound 8 µM)?
Answer: 0.708

Question: What about the relative viability (NCI-H650; first compound 0.253 µM) of the same compound?
Answer: 0.929

Question: What about the relative viability (NCI-H650; first compound 2.53 µM) of the same compound?
Answer: 1

Question: What about the relative viability (NCI-H650; first compound 8 µM) of the same compound?
Answer: 0.727

Question: And the relative viability (SK-MES-1; first compound 0.253 µM)?
Answer: 1.05

Question: What about the relative viability (SK-MES-1; first compound 0.8 µM) of the same compound?
Answer: 1.03

Question: What about the relative viability (SK-MES-1; first compound 2.53 µM) of the same compound?
Answer: 1.13

Question: And the relative viability (SK-MES-1; first compound 8 µM)?
Answer: 0.979

Question: What about the relative viability (NCI-H1651; first compound 0.253 µM) of the same compound?
Answer: 0.995

Question: And the relative viability (NCI-H1651; first compound 0.8 µM)?
Answer: 0.968

Question: And the relative viability (NCI-H1651; first compound 2.53 µM)?
Answer: 1.18

Question: And the relative viability (NCI-H1651; first compound 8 µM)?
Answer: 0.973

Question: What about the relative viability (NCI-H2085; first compound 0.253 µM) of the same compound?
Answer: 0.876

Question: And the relative viability (NCI-H2085; first compound 0.8 µM)?
Answer: 0.877

Question: What about the relative viability (NCI-H2085; first compound 2.53 µM) of the same compound?
Answer: 1.03

Question: What about the relative viability (NCI-H2085; first compound 8 µM) of the same compound?
Answer: 0.933

Question: What about the relative viability (NCI-H2347; first compound 0.253 µM) of the same compound?
Answer: 0.952

Question: What about the relative viability (NCI-H2347; first compound 0.8 µM) of the same compound?
Answer: 1.03

Question: And the relative viability (NCI-H2347; first compound 2.53 µM)?
Answer: 1

Question: And the relative viability (NCI-H2347; first compound 8 µM)?
Answer: 0.808

Question: What about the relative viability (H3255; first compound 0.253 µM) of the same compound?
Answer: 0.996

Question: What about the relative viability (H3255; first compound 0.8 µM) of the same compound?
Answer: 0.957

Question: And the relative viability (H3255; first compound 2.53 µM)?
Answer: 1.06

Question: What about the relative viability (H3255; first compound 8 µM) of the same compound?
Answer: 0.871
